The source of these data is publication PMC5662223, “Biophysical and functional characterization of the N-terminal domain of the cat T1R1 umami taste receptor expressed in Escherichia coli” (PLoS ONE, 2017).

The structures appear in SMILES notation. Entries after “also recorded” stand apart in the source; their conditions may differ.

Test [1] addresses cT1R1-NTD (N-terminal domain of the cat T1R1 taste receptor) (Felis catus, UniProt A0ABI7Z2I4). Nature of the test: Ligand binding assay by intrinsic tryptophan fluorescence of refolded cT1R1-NTD. Particulars: for synergetic effect of IMP on L-amino acid binding (shift of binding curve): 0.3 μM IMP final concentration; for maximal amplitude of cT1R1-NTD fluorescence induced by the amino acid in presence of IMP: compared to the other tested L-amino acids. The procedure: The intrinsic fluorescence of cT1R1-NTD was measured as previously described by Nie et al. using a Cary Eclipse spectrofluorometer (Varian Instruments) equipped with a Peltier temperature control unit. Sample proteins were excited at 295 nm and emission spectra were recorded from 300 to 400 nm, with 5-nm and 10-nm bandwidth for emission and excitation, respectively. For titration experiments, fluorescence spectra were recorded using 0.5 μM protein solution in 50 mM Tris-HCl pH 8.0, 150 mM NaCl, 1mM DTT and 0.1 mM DDM. Ligand solutions were freshly prepared in the same buffer. Successive aliquots of potential ligands were added to 400 μL of cT1R1-NTD solution. The temperature was kept constant at 20°C. Fluorescence measurements were corrected for dilution, bleaching and nonspecific buffer quenching. Kd values and standard errors were calculated from a plot of the ratio between the fluorescence intensity variation and the maximum of fluorescence intensity variation versus concentration of total ligand, obtained with a standard non-linear regression method and using one site saturation ligand binding equation using SigmaPlot software. […] The Kd values of ligand-receptor interactions were determined using Eq (1) ΔF/ΔFmax = Bmax×[L]/(Kd+[L]) (1) Where Kd value is the apparent dissociation constant, ΔF is the difference between the fluorescence intensity at a given concentration of ligand and the fluorescence intensity in the absence of ligand, and ΔFmax is the difference at infinite ligand concentration [L], Bmax is the maximum fluorescence signal, [L] corresponds to the concentration of ligands. The reported Kd values are the average of more than nine measurements performed on at least three independently refolded protein samples. […] Statistical analyses: Dunnett’s test was used to determine the statistical significance between data means.

The target in another test is human T1R3-NTD. Set-up: method as in PMID 22450161, PMID 22909933. To be noted: cited from earlier work.
Setting [2] is: ligand alone, no IMP, Fig 6: 100 μM final concentration, excitation 295 nm, emission 340 nm.

Chain of cT1R1-NTD (N-terminal domain of the cat T1R1 taste receptor) (A0ABI7Z2I4 entry or part of it): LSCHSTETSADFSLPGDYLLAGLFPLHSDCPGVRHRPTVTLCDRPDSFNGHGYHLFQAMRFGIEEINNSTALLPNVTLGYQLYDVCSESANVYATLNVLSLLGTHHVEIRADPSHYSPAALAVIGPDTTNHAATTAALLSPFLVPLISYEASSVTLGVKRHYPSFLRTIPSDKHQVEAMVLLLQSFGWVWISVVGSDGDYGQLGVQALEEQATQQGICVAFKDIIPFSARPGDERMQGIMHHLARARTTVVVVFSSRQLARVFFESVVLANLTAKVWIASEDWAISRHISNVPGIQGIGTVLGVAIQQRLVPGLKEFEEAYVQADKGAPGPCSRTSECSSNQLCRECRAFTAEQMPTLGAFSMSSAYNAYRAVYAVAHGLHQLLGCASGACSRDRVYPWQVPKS

On to `Nc1nc2c(ncn2[C@@H]2O[C@H](COP(=O)(O)O)[C@@H](O)[C@H]2O)c(=O)[nH]1` [GMP, guanosine-5’-monophosphate], for which, in test [1] (GMP alone at low concentrations (below 1 μM)), the “effect on cT1R1-NTD intrinsic fluorescence” value is “fluorescence enhancement”.

Regarding `OC[C@H]1O[C@H](O[C@]2(CCl)O[C@H](CCl)[C@@H](O)[C@@H]2O)[C@H](O)[C@@H](O)[C@H]1Cl` [sucralose], the binding affinity entry at human T1R3-NTD is “millimolar range”.

Consider `N[C@@H](CS)C(=O)O` [L-Cys], for which the “fluorescence enhancement of cT1R1-NTD generated by 0.3 μM IMP in the presence of the amino acid” value in test [1] (0.3 μM IMP, compared with absence of L-Cys) is listed as “not significantly different”. Also, in test [1] (setting [2]), the “effect on cT1R1-NTD intrinsic fluorescence” value was “no effect; also recorded: does not affect cT1R1-NTD fluorescence”.

On to `N=C(N)NCCC[C@H](N)C(=O)O` [L-Arg], for which the “synergetic effect of IMP on L-amino acid binding (shift of binding curve)” value (“synergetic effect … (shift of binding curve)” for short) in test [1] is reported as “relatively modest”. Further, in test [1] (0.3 μM IMP), the “maximal amplitude of cT1R1-NTD fluorescence induced by the amino acid in presence of IMP” value is “increased”. Moreover, the “effect on cT1R1-NTD intrinsic fluorescence” value in test [1] (setting [2]) was “saturable intrinsic fluorescent enhancement”.

`CC[C@H](C)[C@H](N)C(=O)O` [L-Ile]: the “synergetic effect … (shift of binding curve)” value in test [1] is “relatively modest”. Further, in test [1] (setting [2]), the “effect on cT1R1-NTD intrinsic fluorescence” value is on record as “saturable intrinsic fluorescent enhancement”.

As for `C[C@H](N)C(=O)O` [L-Ala, L-alanine], the “synergetic effect … (shift of binding curve)” value in test [1] is “relatively modest”. Further, in test [1] (setting [2]), the “effect on cT1R1-NTD intrinsic fluorescence” value is given as “saturable intrinsic fluorescent enhancement”.

In the case of `N[C@@H](Cc1c[nH]cn1)C(=O)O` [L-His, L-histidine], the “synergetic effect … (shift of binding curve)” value in test [1] was “more pronounced”. In addition, the “maximal amplitude of cT1R1-NTD fluorescence induced by the amino acid in presence of IMP” value in test [1] (0.3 μM IMP) is recorded as “increased”. Also, the “effect on cT1R1-NTD intrinsic fluorescence” value in test [1] (setting [2]) was “saturable intrinsic fluorescent enhancement”.
